Laboratory results: patent US7754738B2, “Pyrazole and pyrrole carboxamide insecticides” (E.I. du Pont de Nemours and Company, priority 2002, dated 2010)

Test system: beet armyworm (Spodoptera exigua)
Assay: Test D: control of beet armyworm on corn plant, foliar spray
Assay type: in vivo
Conditions: sprayed at 50 ppm, 1-day-old larvae, 6 days, visual rating
Description: Test compounds were formulated using a solution containing 10% acetone, 90% water and 300 ppm X-77® Spreader Lo-Foam Formula non-ionic surfactant containing alkylarylpolyoxyethylene, free fatty acids, glycols and isopropanol (Loveland Industries, Inc., Greely, Colo. USA), unless otherwise indicated. The formulated compounds were applied in 1 mL of liquid through a SUJ2 atomizer nozzle with ⅛ JJ custom body (Spraying Systems Co. Wheaton, Ill., USA) positioned 1.27 cm (0.5 inches) above the top of each test unit. All experimental compounds in these tests were sprayed at 250 ppm (or lower) and replicated three times. After spraying of the formulated test compound, each test unit was allowed to dry for 1 hour and then a black, screened cap was placed on top. The test units were held for 6 days in a growth chamber at 25° C. and 70% relative humidity. Plant feeding damage was then visually assessed based on foliage consumed.
For evaluating control of beet armyworm (Spodoptera exigua) the test unit consisted of a small open container with a 4-5-day-old corn plant inside. This was pre-infested (using a core sampler) with 10-15 1-day-old larvae on a piece of insect diet.
Test compounds were formulated and sprayed at 250 ppm (or lower) as described for Test A. The applications were replicated three times. […]

SMILES: O=C(Nc1c(F)cc(F)cc1Br)c1cc(Br)nn1-c1ncccc1Cl [Compound 7, N-(2-bromo-4,6-difluorophenyl)-1-(3-chloro-2-pyridinyl)-3-bromo-1H-pyrazole-5-carboxamide]
- feeding damage (plant protection): ≤ 20%
